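A five-concentration, 48-hour dose response in 96-well plates underlies each endpoint, interpolated linearly between surrounding concentrations. TGI: concentration producing complete growth inhibition.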
What was measured:
Test in all cases: NCI tumour cell line growth inhibition, 48 h
786-0 renal = test system: 786-0 renal
A498 renal = test system: A498 renal
A549 NSCLC = test system: A549 NSCLC
ACHN renal = test system: ACHN renal
BT-549 breast = test system: BT-549 breast
CAKI-1 renal = test system: CAKI-1 renal
CCRF-CEM leukemia = test system: CCRF-CEM leukemia
COLO 205 colon = test system: COLO 205 colon
DU-145 prostate = test system: DU-145 prostate
EKVX NSCLC = test system: EKVX NSCLC
HCC-2998 colon = test system: HCC-2998 colon
HCT-116 colon = test system: HCT-116 colon
HCT-15 colon = test system: HCT-15 colon
HL-60(TB) leukemia = test system: HL-60(TB) leukemia
HOP-62 NSCLC = test system: HOP-62 NSCLC
HS 578T breast = test system: HS 578T breast
HT29 colon = test system: HT29 colon
IGROV1 ovarian = test system: IGROV1 ovarian
K-562 leukemia = test system: K-562 leukemia
KM12 colon = test system: KM12 colon
LOX IMVI melanoma = test system: LOX IMVI melanoma
M14 melanoma = test system: M14 melanoma
MALME-3M melanoma = test system: MALME-3M melanoma
MDA-MB-231 breast = test system: MDA-MB-231 breast
MDA-MB-435 = test system: MDA-MB-435
MDA-N = test system: MDA-N
MOLT-4 leukemia = test system: MOLT-4 leukemia
NCI-H226 lung = test system: NCI-H226 lung
NCI-H23 lung = test system: NCI-H23 lung
NCI-H460 lung = test system: NCI-H460 lung
NCI-H522 lung = test system: NCI-H522 lung
NCI/ADR-RES ovarian = test system: NCI/ADR-RES ovarian
OVCAR-3 ovarian = test system: OVCAR-3 ovarian
OVCAR-4 ovarian = test system: OVCAR-4 ovarian
OVCAR-5 ovarian = test system: OVCAR-5 ovarian
OVCAR-8 ovarian = test system: OVCAR-8 ovarian
PC-3 prostate = test system: PC-3 prostate
RPMI-8226 leukemia = test system: RPMI-8226 leukemia
RXF 393 renal = test system: RXF 393 renal
SF-268 CNS = test system: SF-268 CNS
SF-295 CNS = test system: SF-295 CNS
SF-539 CNS = test system: SF-539 CNS
SK-MEL-28 melanoma = test system: SK-MEL-28 melanoma
SK-MEL-5 melanoma = test system: SK-MEL-5 melanoma
SK-OV-3 ovarian = test system: SK-OV-3 ovarian
SN12C renal = test system: SN12C renal
SNB-19 CNS = test system: SNB-19 CNS
SNB-75 CNS = test system: SNB-75 CNS
SR leukemia = test system: SR leukemia
SW-620 colon = test system: SW-620 colon
T-47D breast = test system: T-47D breast
TK-10 renal = test system: TK-10 renal
U251 CNS = test system: U251 CNS
UACC-257 melanoma = test system: UACC-257 melanoma
UACC-62 melanoma = test system: UACC-62 melanoma
UO-31 renal = test system: UO-31 renal

## Oc1c(Cl)ccc2cccnc12
786-0 renal
  TGI: 51.4 µM
A498 renal
  TGI: 33.1 µM
A549 NSCLC
  TGI: > 100 µM
ACHN renal
  TGI: 35.8 µM
BT-549 breast
  TGI: > 100 µM
CAKI-1 renal
  TGI: > 100 µM
CCRF-CEM leukemia
  TGI: 2.4 µM
COLO 205 colon
  TGI: > 100 µM
DU-145 prostate
  TGI: > 100 µM
EKVX NSCLC
  TGI: 39.4 µM
HCC-2998 colon
  TGI: > 100 µM
HCT-116 colon
  TGI: 4.56 µM
HCT-15 colon
  TGI: > 100 µM
HL-60(TB) leukemia
  TGI: 0.728 µM
HOP-62 NSCLC
  TGI: 59.6 µM
HS 578T breast
  TGI: > 100 µM
HT29 colon
  TGI: > 100 µM
IGROV1 ovarian
  TGI: 1.86 µM
K-562 leukemia
  TGI: 7.56 µM
KM12 colon
  TGI: > 100 µM
LOX IMVI melanoma
  TGI: 29.7 µM
M14 melanoma
  TGI: > 100 µM
MALME-3M melanoma
  TGI: > 100 µM
MDA-MB-231 breast
  TGI: > 100 µM
MDA-MB-435
  TGI: > 100 µM
MDA-N
  TGI: > 100 µM
MOLT-4 leukemia
  TGI: 5.76 µM
NCI-H226 lung
  TGI: 71.2 µM
NCI-H23 lung
  TGI: > 100 µM
NCI-H460 lung
  TGI: 88 µM
NCI-H522 lung
  TGI: 7.78 µM
NCI/ADR-RES ovarian
  TGI: 3.43 µM
OVCAR-3 ovarian
  TGI: > 100 µM
OVCAR-4 ovarian
  TGI: > 100 µM
OVCAR-5 ovarian
  TGI: > 100 µM
OVCAR-8 ovarian
  TGI: > 100 µM
PC-3 prostate
  TGI: > 100 µM
RPMI-8226 leukemia
  TGI: 8.28 µM
RXF 393 renal
  TGI: 26.2 µM
SF-268 CNS
  TGI: > 100 µM
SF-295 CNS
  TGI: 68.4 µM
SF-539 CNS
  TGI: 34.7 µM
SK-MEL-28 melanoma
  TGI: > 100 µM
SK-MEL-5 melanoma
  TGI: > 100 µM
SK-OV-3 ovarian
  TGI: > 100 µM
SN12C renal
  TGI: 88.5 µM
SNB-19 CNS
  TGI: > 100 µM
SNB-75 CNS
  TGI: 89.6 µM
SR leukemia
  TGI: 13.5 µM
SW-620 colon
  TGI: > 100 µM
T-47D breast
  TGI: 25.8 µM
TK-10 renal
  TGI: > 100 µM
U251 CNS
  TGI: > 100 µM
UACC-257 melanoma
  TGI: 84.2 µM
UACC-62 melanoma
  TGI: 8.09 µM
UO-31 renal
  TGI: 41.1 µM
